The values that follow come from patent US20210401791A1, “METHODS AND COMPOSITIONS FOR REDUCING ALCOHOL TOXICITY” (THE JOHNS HOPKINS UNIVERSITY, priority 2011, published 2021).

Entries after “also recorded” stand apart in the source; their conditions may differ. Read-outs that look alike come from different tables or passages of the source.

Data set [1] concerns Aldh3a1. Kind of data set: mRNA expression of Aldh3a1 in Hepa1c1c7 cells (real-time PCR). Conditions: 24 hours, SF 1 or 3 μM, TP-225 0.003 or 0.01 μM, BNF 0.3 or 1 μM. The data set is classed as cell-based, mouse.
Experimental: Total RNA was extracted from Hepa1c1c7 cells that had been exposed to serial dilutions of inducers for 24 h, or from RNA-stabilized tissues (stored in TRizol) from mice, followed by reverse transcription into cDNA. The cDNA was subjected to quantitative real-time PCR analysis by using SYBR Green fluorescence with 7000 Sequence Detection System. […] Relative expressions of individual mRNAs for ALDH were normalized to β-actin as an endogenous control, and the expression rate was calculated using the comparative ΔΔCt method.
The procedure of data set [2]:
(§1) After fasting overnight, they were gavaged with 35% (v/v) ethanol solution at a dose of 2.0 g/kg. Before, and 0.5, 1, 2, 3, 4, and 6 h after administration of ethanol, 20 μL of blood were collected by nicking the tail vein. The mice were then euthanized and their blood, liver, stomach and upper intestine were collected.
(§2) Blood ethanol and acetaldehyde levels in mice were determined enzymatically by modification of the method of Tottmar et al. (Tottmar 1978). Whole blood samples (20 μL) were obtained by repeated incisions of mouse tail veins. The blood was immediately mixed with 200 μL of 4% (v/v) perchloric acid (PCA) in sealed tubes at 4° C., incubated for 10 min, and then centrifuged at 3000×g for 10 min. The pH values of the supernatant fractions were adjusted to 7.5-8.0 by adding 20 μL of 3 M K2CO3 in new tubes. After removing precipitated KClO4 by centrifugation at 3000×g for 10 min, supernatant fractions were stored in sealed tubes at 4° C. until assayed.
Determination of acetaldehyde was performed in 10 mm quarts fluorescence cuvettes in a final volume of 2.33 mL assay mixture containing of assay mixture containing 50 mM sodium pyrophosphate (pH 8.8), 0.1 mM pyrazole, 0.1 mM NAD and 0.2 units/mL of purified ALDH (potassium activated from baker's yeast) with a luminescence spectrophotometer. Before and 5 min after addition of 170 μL of the supernatant, intensities were monitored (λex: 340 nm and λem: 460 nm). The acetaldehyde level in blood was calculated from change of intensity using acetaldehyde standard curve with range from 1.56 to 50 μM in blood. The standard curve was made by applying serial dilution of acetaldehyde to PCA treatment process same as blood.

Data set [3] concerns Aldh3a1. Conditions: SF diet 1 week. How it is done:
(§3) All animal experiments were performed in compliance with National Institute of Health Guidelines and those of Animal Care and Use Committee of the Johns Hopkins University. […] After 1 week on these diets, mice were euthanized and their liver, forestomach, glandular stomach, and upper small intestine were harvested, frozen in liquid nitrogen, and stored at −80° C. until analyzed. A small portion of each tissue was stored in RNA stabilizing solution at 4° C. until total RNA extraction.
(§4) Total RNA was extracted from Hepa1c1c7 cells that had been exposed to serial dilutions of inducers for 24 h, or from RNA-stabilized tissues (stored in TRizol) from mice, followed by reverse transcription into cDNA. The cDNA was subjected to quantitative real-time PCR analysis by using SYBR Green fluorescence with 7000 Sequence Detection System. All primers used in this study were designed based on previous reports. Relative expressions of individual mRNAs for ALDH were normalized to β-actin as an endogenous control, and the expression rate was calculated using the comparative ΔΔCt method.

The subject of the next data set is Aldh2. Conditions: liver, SF diet 1 week. How it is done: as §3, §4
For another data set, the system named is Aldh1a1. Conditions: liver, SF diet 1 week. How it is done: as §3, §4
For data set [4], the system named is ALDH. Kind of data set: Total ALDH activity in Hepa1c1c7 cell homogenates (propionaldehyde substrate, fluorimetric). The data set is classed as cell-based, mouse. How it is done:
To determine total ALDH activity, Hepa1c1c7 or MEF cells were plated into 6-cm plates at 6.0×10^5 or 1.2×10^6 cells/plate, incubated for 24 h at 37° C. in a 5% CO2 atmosphere, and then treated with serial dilutions of inducers. The inducers were dissolved in acetonitrile or DMSO and added to medium so that final concentrations of the solvents was less than 0.5 or 0.1% v/v, respectively. […] The assay was started by addition of 10 μL of 90 mM propionaldehyde, bringing the total volume to 200 μL. […] Blank reaction rates without propionaldehyde were also determined.

For the next data set, the system named is ALDH in Nrf2−/− MEFs. Conditions: stepwise concentration of SF, 48 h. How it is done:
(§5) All cell lines were grown in 5% CO2 at 37° C. Murine hepatoma cell line, Hepa1c1c7 was cultured in α-MEM supplemented with 10% (v/v) heat inactivated FBS. Mouse embryo fibroblasts (MEFs) derived from day 13.5 embryos of wild-type or Nrf2-knockout C57BL/6 mice were cultured in Iscoves Modified Dulbecco's Medium (with L-glutamine) supplemented with human recombinant epidermal growth factor (10 ng/mL), 1× insulin/transferring/selenium, and 10% (v/v) heat-inactivated FBS.
(§6) To determine total ALDH activity, Hepa1c1c7 or MEF cells were plated into 6-cm plates at 6.0×10^5 or 1.2×10^6 cells/plate, incubated for 24 h at 37° C. in a 5% CO2 atmosphere, and then treated with serial dilutions of inducers. The inducers were dissolved in acetonitrile or DMSO and added to medium so that final concentrations of the solvents was less than 0.5 or 0.1% v/v, respectively. […] ALDH activity was measured fluorimetrically in 96-well plates (white-walled) by modification of the method of Koivula et al. (1975). […] The initial velocity of NADH generation was measured (λex 340 nm and λem 460 nm) at 25° C. for 10 min in a micro-plate fluorometer. Blank reaction rates without propionaldehyde were also determined. The ALDH velocity was normalized to the protein concentration and expressed as a change in fluorescent units per min per mg of protein.

The subject of a further data set is ALDH in WT MEFs. Conditions: stepwise concentration of SF, 48 h. How it is done:
as §5, §6

For data set [5], the system named is ALDH. Conditions: 1 week; for Cytosolic/microsomal and mitochondrial ALDH activities, fold above control: glandular-stomach. How it is done: as §3
To determine total ALDH activity, Hepa1c1c7 or MEF cells were plated into 6-cm plates at 6.0×10^5 or 1.2×10^6 cells/plate, incubated for 24 h at 37° C. in a 5% CO2 atmosphere, and then treated with serial dilutions of inducers. The inducers were dissolved in acetonitrile or DMSO and added to medium so that final concentrations of the solvents was less than 0.5 or 0.1% v/v, respectively. After 48 h of treatment, cells were washed twice with PBS, scraped from the plates, and homogenized in micro-homogenizers at 4° C. The homogenates were centrifuged at 5,000×g for 15 min at 4° C. and the supernatant fractions were collected. ALDH activity was measured fluorimetrically in 96-well plates (white-walled) by modification of the method of Koivula et al. (1975). The assay mixture (190 μL) contained 70 mM sodium pyrophosphate buffer (pH 8.0), 1.67 mM pyrazole, 1.33 mM NAD, and supernatant fraction. The assay was started by addition of 10 μL of 90 mM propionaldehyde, bringing the total volume to 200 μL. The initial velocity of NADH generation was measured (λex 340 nm and λem 460 nm) at 25° C. for 10 min in a micro-plate fluorometer. Blank reaction rates without propionaldehyde were also determined. The ALDH velocity was normalized to the protein concentration and expressed as a change in fluorescent units per min per mg of protein.
To determine ALDH activities of cytosolic/microsomal and mitochondrial fractions individually, cells or harvested tissues were homogenized at 4° C. in 10 mM Tris-HCl (pH 7.4) containing 0.25 M sucrose and 1 mM 2-mercaptoethanol and centrifuged at 750×g for 15 min to remove nuclei and cell debris. Supernatant fractions were then centrifuged twice at 12,000×g for 20 min to obtain the cytosolic/microsomal and the precipitated mitochondrial fractions. Mitochondrial fractions were suspended in 0.25 M sucrose, diluted with one-half volume of 1% sodium bicarbonate containing 1% sodium deoxycholate (w/v), and sonicated in a Branson Sonicator at 4° C. for five (5) 2-minute periods for a total of 10 min before assays.

A further data set has as its system glutathione. Conditions: intake of SF; cited from earlier work.
For data set [6] the following is noted: 20 μmol SF/3 g diet/day 1 week, then 2.0 g/kg ethanol oral. How it is done:
as §1, §2

The conditions of data set [7]: human research studies; cited from earlier work.
The conditions of data set [8]: 5 or 20 μmol SF/3 g diet/day, 1 week. How it is done: as §3
Data set [9] concerns NQO1. Conditions: liver, both parts of stomach, upper intestine; high dose 20 μmol SF/3 g diet/day, 1 week. How it is done: as §3
Data set [10] concerns NQO1. The data set is described as follows: NQO1 activity in Hepa1c1c7 cells (Prochaska assay, menadione substrate). The data set is classed as cell-based, mouse. Conditions: 48 h. How it is done:
The lysates of Hepa1c1c7 cells which were plated in 96-well plates at 10^4 cells per well, grown for 24 h, and then exposed to serial dilutions of inducers for 48 h.

Where [11] appears, read: liver, high dose 20 μmol SF/3 g diet/day.

Take `O=c1cc(-c2ccccc2)oc2ccc3ccccc3c12` [BNF]: the “Aldh3a1 mRNA expression, fold increase” value with Aldh3a1 [1] is listed as ~5 fold.

As for `C[S@@+]([O-])CCCCN=C=S` [SF, 1-isothiocyanato-4R-(methylsulfinyl)butane], the “AUC of blood acetaldehyde” value in data set [2] (20 μmol SF/3 g diet/day 1 week, then 2.0 g/kg ethanol oral, control 83.8±6.1) stood at 54.5 ± 5.1 µmol·h/L. The “Effect on blood acetaldehyde levels” value in data set [2] (20 μmol SF/3 g/day 1 week, then 2.0 g/kg ethanol oral (FIG. 9)) is “remarkably lowered”. In data set [2] (SF-fed mice), the “Acetaldehyde elimination constant relative to control mice” value is on record as “roughly 2 times”. Further, the “Prevention of increase in blood acetaldehyde level” value in data set [2] (ascending phase, 20 μmol SF/3 g diet/day 1 week, then 2.0 g/kg ethanol oral) is recorded as 30%. The “Elimination rate constant k of blood acetaldehyde” value in data set [2] (first order model, SF fed mice, control 0.21±0.02, p<0.01) turned out to be 0.40 ± 0.03 h⁻¹. The “Initial blood level C0 of acetaldehyde” value in data set [2] (first order model, SF fed mice, control 28.62±2.1, NS) was 32.38 ± 2.4 µM. The “Aldh3a1 expression, fold increase” value amounted to 3 fold with Aldh3a1 [3] (forestomach) and 6.5 fold with Aldh3a1 [3] (glandular stomach). The “Aldh2 expression level, fold increase” value with Aldh2 is on record as 1.8 fold. Besides, the “Aldh1a1 expression level, fold increase” value in the data set with Aldh1a1 was found to be 2.5 fold. Besides, the “Total ALDH activity, fold above control levels” value in the data set with ALDH [4] (3 μM SF, additional 6 hours after first 12 h) is 1.5 fold; in the data set with ALDH [4] (3 μM SF, additional 12 hours after first 12 h), 1.9 fold; in the data set on ALDH [4] (3 μM SF, additional 24 hours after first 12 h), 2.1 fold. The “Total ALDH activity vs control” value with ALDH [4] (3 μM SF, first 12 h) is given as “not increased”. In the data set on ALDH [4] (Hepa1c1c7 cells, 48 hours treatment), the “Concentration at which significant effects on total ALDH activity were observed” value is ≥ 0.3 µM. Besides, the “Effect on total ALDH activity” value with ALDH [4] (Hepa1c1c7 cells, serial concentrations, 48 h) is “dramatically and dose dependently increased; also recorded: increased total ALDH activity in Hepa1c1c7 cells in a dose dependent manner”; with ALDH in Nrf2−/− MEFs, “altogether absent”; with ALDH in WT MEFs, “increased in a dose dependent manner”. For the same compound, the “Treatment time after which total ALDH activity increased” value in the data set on ALDH [4] (time course measurement, treatment with SF) is 12 to 18 h. The figures for the “Cytosolic/microsomal and mitochondrial ALDH activities, fold above control” value in the data set on ALDH [5] ((high) 20 μmol SF/3 g diet/day) and with ALDH [5] ((low) 5 μmol SF/3 g diet/day) were 5.1 fold and 4.1 fold, respectively. In the data set with ALDH [5] (setting [11]), the “Cytosolic/microsomal ALDH activity, fold increase” value was determined as 1.4 fold. The “Mitochondrial ALDH activity, fold increase” value with ALDH [5] (setting [11]) was 1.5 fold. Also, the “Glutathione levels in liver” value in the data set with glutathione is given as “increased glutathione levels in liver”. In addition, the “AUC of blood ethanol vs control” value in [6] is “no significant difference”. Also, in data set [6] (only in descending phase), the “Effect on blood ethanol level” value was “slightly affected”. For the same compound, the “Aldh3a1 mRNA expression, fold increase” value in the data set on Aldh3a1 [1] was ~5 fold. Besides, the “Adverse effects on administration” value in data set [7] is “not shown any significant adverse effects”. Besides, the “Body weights vs control group” value in data set [8] is “no significant differences”. For the same compound, the “Food intakes vs control group” value in data set [8] is on record as “no significant differences”. Also, the “NQO1 activity, fold increase compared to control” value in the data set with NQO1 [9] is reported as ≤ 2.2 fold.

For `CC1(C)CC[C@]2(C#N)CC[C@]3(C)[C@H](C(=O)C=C4[C@@]5(C)C=C(C#N)C(=O)C(C)(C)[C@@H]5CC[C@]43C)[C@@H]2C1` [TP-225], the “CD value (concentration required to double the enzyme activity) for induction of NQO1” value in the data set with NQO1 [10] stood at 0.00038 µM. Further, the “CD value (concentration required to double the enzyme activity) for induction of ALDH” value with ALDH [4] (Hepa1c1c7 cells, 48 h) is 0.0016 µM. In addition, the “Aldh3a1 mRNA expression, fold increase” value in the data set on Aldh3a1 [1] was ~5 fold.

On to `Oc1ccc(C=Cc2cc(O)cc(O)c2)cc1` [resveratrol, reference compound], for which, in the data set with NQO1 [10], the “CD value (concentration required to double the enzyme activity) for induction of NQO1” value was > 50 µM. For the same compound, the “CD value (concentration required to double the enzyme activity) for induction of ALDH” value in the data set on ALDH [4] (Hepa1c1c7 cells, 48 h) turned out to be 120.7 µM.
